This note sets out measurements from the NIST ThermoML archive (doi:10.1016/j.jct.2019.07.003).

SMILES strings stand for the structures. Numbers after ± are expanded uncertainties.

The conditions of this data set: Crystal; DTA.

Consider `[Cl-].[Cs+]` [cesium chloride], for which the Normal melting temperature turned out to be 645 ± 1 °C.
The result for `[F-].[Li+]` [lithium fluoride] reads 844 ± 1 °C.
